Results published in PubChem BioAssay AID1259411 (Chemical Carcinogenesis Research Information System (CCRIS), 2018).
Calls of active or inactive are those of the source. No rule for the calls is given here.

Tested on: rodent carcinogenicity bioassays, tumor incidence
Assay: CCRIS carcinogenicity studies
In short: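 Archive of carcinogenicity, mutagenicity, tumor promotion and tumor inhibition results drawn from journals, NCI reports and other sources, expert-reviewed; covers 1985-2011 and is no longer updated.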

| SMILES | carcinogen call (Species: MOUSE, Strain/Sex: C57BL, Route: INTRAPERITONEAL, Dose: 1.18 MG/G 10X AT WEEKLY INTERVALS, Tumor Site: Type of Lesion: THYMUS GLAND: LYMPHOSARCOMA, LUNG: ADENOMA) | carcinogen call (Species: MOUSE, Strain/Sex: STRAIN-A/FEMALE, Route: INTRAPERITONEAL, Dose: 4000 NMOL/G, Tumor Site: Type of Lesion: LUNG: ADENOMA) | carcinogen call (Species: MOUSE, Strain/Sex: B6C3F1/FEMALE, Route: ORAL, Dose: 0, 3000, 6000 PPM IN DIET FOR 103 WK FOR 103 WK (STUDY DURATION: 105 WK), Dose: 0, 3000, 6000 PPM IN DIET FOR 103 WK FOR 103 WK (STUDY DURATION: 105 WK), Tumor Site: Type of Lesion: LIVER: HEPATOCELLULAR CARCINOMA, HEPATOCELLULAR ADENOMA OR CARCINOMA) | carcinogen call (Species: MOUSE, Strain/Sex: B6C3F1/MALE, Route: ORAL, Dose: 0, 1500, 3000 PPM IN DIET FOR 103 WK FOR 103 WK (STUDY DURATION: 105 WK), Dose: 0, 1500, 3000 PPM IN DIET FOR 103 WK FOR 103 WK (STUDY DURATION: 105 WK), Tumor Site: Type of Lesion: LIVER: HEPATOCELLULAR ADENOMA, HEPATOCELLULAR CARCINOMA, THYROID GLAND: FOLLICULAR CELL ADENOMA) | carcinogen call (Species: RAT, Strain/Sex: F344/FEMALE, Route: ORAL, Dose: 0, 1500, 3000 PPM IN DIET FOR 103 WK FOR 103 WK (STUDY DURATION: 105 WK), Dose: 0, 1500, 3000 PPM IN DIET FOR 103 WK FOR 103 WK (STUDY DURATION: 105 WK), Tumor Site: Type of Lesion: LUNG: ALVEOLAR/BRONCHIOLAR ADENOMA OR CARCINOMA, UTERUS: ENDOMETRIAL STROMAL POLYP) | carcinogen call (Species: RAT, Strain/Sex: F344/MALE, Route: ORAL, Dose: 0, 1500, 3000 PPM IN DIET FOR 103 WK (STUDY DURATION: 105 WK), Dose: 0, 1500, 3000 PPM IN DIET FOR 103 WK (STUDY DURATION: 105 WK), Tumor Site: Type of Lesion: LIVER: HEPATOCELLULAR NEOPLASTIC NODULE OR CARCINOMA) |
| --- | --- | --- | --- | --- | --- | --- |
| CCOC(=O)NO | active; positive | active; positive |  |  |  |  |
| CNc1ccc(N(CCO)CCO)cc1[N+](=O)[O-] |  |  | active; positive | active; positive | active; positive | equivocal |
